Data: US11884747B2, “Compstatin analogs with increased solubility and improved pharmacokinetic properties” (The Trustees of the University of Pennsylvania, priority 2018, dated 2024)
Several values for one entry are separate records, joined by “and”; a condition that tells them apart may be missing. Identical values can stand only once. Entries after “also recorded” stand apart in the source; their conditions may differ.

Columns and labels:
[1] = biological target: T1, human C3b (Homo sapiens, UniProt P01024); assay: SPR binding affinity and kinetic profile with immobilized C3b; details: 25 °C
T1 construct: purchased Complement Technology, Inc., Tyler, TX

[2] = Pharmacokinetics after single i.v. injection; format: in vivo, cynomolgus monkeys
Experimental: FIG. 11 show graphs of peptide concentration over time in cynomolgus monkeys to which was administered a single 2 mg/kg intravenous injection of Cp40-KK (panel a), Cp40-KKK (panel b), mPEG(1 k)-Cp40 (panel c), and mPEG(3 k)-Cp40 (panel d). […]
In vivo pharmacokinetic studies were conducted, in which cynomolgus monkeys were administered single i.v. injections of mPEG(1 k)-Cp40, mPEG(3 k)-Cp40, Cp40-KK, or Cp40-KKK.

[3] = Residence time in the vitreous after single intravitreal injection (WES and SPR competition assay); format: in vivo, cynomolgus monkeys
Experimental: To determine the residence time of mPEG(3 k)-Cp40, mPEG(1 k)-Cp40, Cp40-KK, and Cp40-KKK in the vitreous of cynomolgus macaques, these Cp40-based analogs were administered intravitreally (i.v.t.) to the animals after induction of light ketamine anesthesia (10-15 mg/kg, by intramuscular injection (i.m.)) and dilation of the pupils with tropicamide/phenylephrine ophthalmic solution (see Table 6 for study design).
For i.v.t. injection, the cynomolgus monkeys were anesthetized with a combination of ketamine (15-25 mg/kg, i.m.) and xylazine (2 mg/kg, i.m.) and the eye was cleaned with povidone-iodine solution. After application of oxybuprocaine hydrochloride solution (Benoxil® ophthalmic solution 0.4%) to the cornea as a local anesthetic, the Cp40-based analogs were administered to the animals by i.v.t. injection into either the right (G1, G3) or left (G2, G4) eye of each animal. Immediately following each injection, a single topical dose of 0.5% levofloxacin was administered. After i.v.t. injection of mPEG(3 k)-Cp40, mPEG(1 k)-Cp40, Cp40-KK, and Cp40-KKK, vitreous fluid samples (about 50 μL each) were withdrawn from Cp40-based analog-treated eyes on days 14, 28, 42, (G1, G2, G3, G4), 56, 73, 90 (G1, G2) (this was done either three times or six times). Samples were collected on ice and stored in a deep freezer (˜79.3 to −68.5° C.) until further analysis. […] Presence and concentration of the Cp40-based analogs was determined using either the simple western technology (WES, ProteinSimple, San Jose, CA), or surface plasmon resonance (SPR)-based real-time measurement of binding kinetics on a Cp40-KKK immobilized chip (see detailed methods below). Similar results with regard to the intravitreal residence time and concentration levels of the test compounds were obtained regardless of the quantification method selected.
To quantify the levels of all test compounds in vitreous samples collected at different time points following i.v.t. injection (see FIG. 15), WES analysis was performed on a WES instrument (ProteinSimple, San Jose, CA) using a 2 to 40 kDa Separation Module and Anti-Rabbit Detection Module according to the manufacturers' instructions. […] The resulting electropherograms were evaluated using the Compass software (ProteinSimple, San Jose, CA). The following criteria were used to discriminate low peptide signals from background: The peak signal-to-noise (S/N) ratio given by the software must be ≥10, and the peak height/baseline ratio (calculated manually from the peak height and baseline values given by the software) must be equal to or greater than 3. […] Shown in FIG. 15 is a representative standard curve generated using the WES system and bands obtained upon running pre-determined amounts of purified peptide spiked into rabbit vitreous samples. […]

[4] = biological target: T2, purified human C3b (Homo sapiens, UniProt P01024); assay: SPR C3b-binding activity of compound present in vitreous samples
T2 construct: purchased Complement Technology, Inc., Tyler, TX
Experimental: To confirm that the compound present in the NHP vitreous maintains C3b-binding activity, which is a prerequisite for eliciting its inhibitory action across all complement pathways, surface plasmon resonance (SPR) binding experiments were conducted. Briefly, for a positive binding control, serial dilutions of Cp40-KKK (16, 8, 4, and 2 nM) were added to rabbit vitreous samples and flowed onto a Biacore CM5 chip immobilized with purified human C3b (Complement Technology Inc, Tyler, TX) (see FIG. 19A). Next, vitreous samples were collected from a Cp40-KKK injected eye at day 14 post-injection and subjected to heat-inactivation at 95° C. for 5 min. Both heat-inactivated and non-heat-inactivated samples were flowed onto a CM5 chip immobilized with purified human C3b as indicated above (FIG. 19B).

[5] = test system: complement classical pathway; assay: Classical pathway activation (C3b deposition) ELISA in human plasma with or without rabbit vitreous; format: biochemical; details: in the absence of vitreous
Experimental: An alternative explanation to the one presented above is that the vitreous contains additional unidentified factors that associate with the Cp40-KKK analog. To investigate whether an unidentified vitreous factor impacts the complement inhibitory activity of lysine containing compounds, complement activation assays were performed using vitreous samples. Briefly, human plasma was incubated with OVA-anti-OVA immune-complexes in the presence of serial dilutions of the Cp40-based analogs mixed with rabbit vitreous. Levels of classical pathway activation (C3b deposition) were determined by ELISA using a polyclonal anti-human C3 antibody conjugated with HRP (MP Biomedicals, Solon, OH) (FIG. 20).

[6] = physchem; details: pH 7.4, Conc. (mg/ml), solubility in PBS
[7] = Pharmacokinetics in NHP plasma after single s.c. injection, with plasma C3 levels
[8] = NHP vitreous, day 14 post-injection

T2 sequence (P01024 23-667 limits assumed): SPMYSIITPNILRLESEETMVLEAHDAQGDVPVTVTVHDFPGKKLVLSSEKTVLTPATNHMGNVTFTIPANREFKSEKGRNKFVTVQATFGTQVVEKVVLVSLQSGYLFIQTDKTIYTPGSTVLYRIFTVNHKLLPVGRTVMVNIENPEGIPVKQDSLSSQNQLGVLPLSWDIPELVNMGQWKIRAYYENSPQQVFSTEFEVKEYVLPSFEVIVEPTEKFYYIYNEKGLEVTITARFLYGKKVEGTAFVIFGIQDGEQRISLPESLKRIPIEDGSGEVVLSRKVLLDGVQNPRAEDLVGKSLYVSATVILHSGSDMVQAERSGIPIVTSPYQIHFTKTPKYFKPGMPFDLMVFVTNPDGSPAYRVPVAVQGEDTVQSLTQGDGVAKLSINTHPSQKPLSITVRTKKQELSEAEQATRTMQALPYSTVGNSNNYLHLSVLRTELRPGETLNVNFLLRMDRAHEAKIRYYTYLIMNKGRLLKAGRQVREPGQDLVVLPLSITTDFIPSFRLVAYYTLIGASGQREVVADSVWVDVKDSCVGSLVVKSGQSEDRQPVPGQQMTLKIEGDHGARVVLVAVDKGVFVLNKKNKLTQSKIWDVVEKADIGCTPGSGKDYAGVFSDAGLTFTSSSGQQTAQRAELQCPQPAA
T2 sequence (P01024 749-1663 partner limits assumed): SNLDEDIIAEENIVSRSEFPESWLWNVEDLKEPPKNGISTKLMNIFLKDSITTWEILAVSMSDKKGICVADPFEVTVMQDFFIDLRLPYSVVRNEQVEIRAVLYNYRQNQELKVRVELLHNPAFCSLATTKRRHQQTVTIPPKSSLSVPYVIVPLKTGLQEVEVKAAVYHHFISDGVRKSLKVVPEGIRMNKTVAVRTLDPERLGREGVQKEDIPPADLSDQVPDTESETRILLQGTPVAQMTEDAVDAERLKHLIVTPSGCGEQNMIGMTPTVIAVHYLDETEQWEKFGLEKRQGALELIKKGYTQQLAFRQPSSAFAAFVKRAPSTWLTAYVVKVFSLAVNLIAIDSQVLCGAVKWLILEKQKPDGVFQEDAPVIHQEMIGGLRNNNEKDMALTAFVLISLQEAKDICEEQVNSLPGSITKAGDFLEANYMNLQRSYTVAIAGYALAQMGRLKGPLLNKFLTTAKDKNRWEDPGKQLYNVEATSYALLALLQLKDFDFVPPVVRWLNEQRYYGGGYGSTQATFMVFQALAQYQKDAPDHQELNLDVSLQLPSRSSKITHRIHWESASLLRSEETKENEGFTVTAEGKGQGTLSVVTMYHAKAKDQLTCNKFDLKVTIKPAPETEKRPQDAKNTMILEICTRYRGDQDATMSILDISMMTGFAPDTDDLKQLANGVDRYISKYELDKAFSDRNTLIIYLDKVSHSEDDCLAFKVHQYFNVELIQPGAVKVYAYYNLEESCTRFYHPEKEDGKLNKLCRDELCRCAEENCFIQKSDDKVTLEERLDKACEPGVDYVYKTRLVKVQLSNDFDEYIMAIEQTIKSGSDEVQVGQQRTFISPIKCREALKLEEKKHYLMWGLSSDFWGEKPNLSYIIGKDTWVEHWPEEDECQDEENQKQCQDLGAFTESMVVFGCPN
T1 sequence (P01024 23-667 limits assumed): as the sequence (P01024 23-667 limits assumed) above
T1 sequence (P01024 749-1663 partner limits assumed): as the sequence (P01024 749-1663 partner limits assumed) above

With `CC[C@H](C)[C@H](NC(=O)[C@H](N)Cc1ccc(O)cc1)C(=O)N[C@H]1CSSC[C@@H](C(=O)N(C)[C@H](C(=O)N[C@@H](CCCCN)C(=O)N[C@@H](CCCCN)C(=O)N[C@@H](CCCCN)C(N)=O)[C@@H](C)CC)NC(=O)[C@H](CCCNC(=N)N)NC(=O)[C@H](Cc2c[nH]cn2)NC(=O)[C@H](C)NC(=O)CN(C)C(=O)[C@H](Cc2c[nH]c3ccccc23)NC(=O)[C@H](CC(=O)O)NC(=O)[C@H](CCC(N)=O)NC(=O)[C@H](Cc2cn(C)c3ccccc23)NC(=O)[C@H](C(C)C)NC1=O` [Cp40-KKK, DTyr-Ile-[Cys-Val-Trp(Me)-Gln-Asp-Trp-Sar-Ala-His-Arg-Cys]-mlle-Lys-Lys-Lys—NH2] the “kd, dissociation constant” value ([1]; 1:1 Langmuir model) was 1.24 ± 0.42 10^−3s^−1, the Kd ([1]; KD=kd/ka, read-out: KD, equilibrium dissociation constant) was 0.21 ± 0.09 nM and the “in vivo Lys cleavage in plasma” value ([2]; after i.v. injection) was “metabolized into Cp40-KK and small amounts of Cp40-K”. For the same molecule, the AUC(0-t) ([2]; cynomolgus monkey, plasma, iv, 2 mg/kg, single i.v. injection, read-out: AUC0-120h) was 304 to 312 µM·h, the “AUC0-120 h greater than Cp40-KK” value ([2]; single i.v. injection) was “over 3.5 fold” and the “vitreous residence at C3 saturating levels” value ([3]; single i.v.t. 0.5 mg) was ≥ 90 days. For the same molecule, the “detection in vitreous over time” value ([3]; single i.v.t. 500 μg, days 14-90) was “detected even at day 90 post-treatment; also recorded: remained stable during the 73-day observation period”, the “C3b-binding signal, heat-inactivated vitreous sample” value [4, 8] was 10 relative units and the “C3b-binding signal, non-heat inactivated vitreous sample” value [4, 8] was 2 relative units. The “C3b binding in vitreous” value ([4]; spiked rabbit vitreous or injected NHP eye) was “binds to C3b in a dose-dependent manner; also recorded: maintains its C3b-binding activity”, the “complement classical pathway inhibitory activity” value [5] was “inhibitory activity in a dose-dependent manner” and the solubility [6] was > 100 mg/mL. For the same molecule, the “Cp40-K fragment detectable in plasma” value ([7]; 4 h after s.c. injection, one monkey) was ≤ 5 µM, the “in vivo Lys cleavage in plasma” value ([7]; after s.c. injection, UPLC-ESI-MS) was “one or two Lys residues are cleaved from Cp40-KKK in NHP plasma, but not the third; also recorded: no Cp40 was detected in any of the plasma samples; also recorded: almost completely metabolized into Cp40-KK and small amounts of Cp40-K” and the “decreased CL/F compared to Cp40” value ([7]; single s.c. 2 mg/kg) was ~3 fold. The “higher cmax than Cp40” value ([7]; single s.c. 2 mg/kg) was ~2 fold, the “increased AUC0-t compared to Cp40” value ([7]; single s.c. 2 mg/kg) was ~2.6 fold and the “plasma concentration of uncleaved Cp40-KKK at any time point” value ([7]; single s.c. 2 mg/kg, UPLC-ESI-MS, both animals) was ≤ 2000 nM. For the same molecule, the “CL/F, apparent clearance” value ([7]; single s.c. 2 mg/kg, SUM for Lys analogs, 2 mg/kg) was 2483 ((mg/kg)/(μM · h) and 2921 ((mg/kg)/(μM · h).
